Measurements: US9540397B2, “BACE1 inhibitors” (Hoffmann-La Roche Inc., priority 2014, dated 2017)

Tests used:
[1] = target: T1, BACE1 (Homo sapiens, UniProt P56817); test: Cellular Aβ-lowering assay (Abeta 40 AlphaLISA, HEK293 APP cells); format: cell-based; conditions: 18-20 hrs incubation, Aβ40 in culture supernatant, read-out: BACE1 cell act. Aβ40 IC50
T1 construct: endogenous in cells; host or cells: HEK293 APP cells
Protocol: Cellular Aβ-lowering assay:
The Abeta 40 AlphaLISA Assay can be used. The HEK293 APP cells were seeded in 96 well Microtiter plates in cell culture medium (Iscove's, plus 10% (v/v) fetal bovine serum, penicillin/streptomycin) to about 80% confluency and the compounds were added at a 3× concentration in ⅓ volume of culture medium (final DMSO concentration was kept at 1% v/v). After 18-20 hrs incubation at 37° C. and 5% CO2 in a humidified incubator, the culture supernatants were harvested for the determination of AP 40 concentrations using Perkin-Elmer Human Amyloid beta 1-40 (high specificity) Kit (Cat#AL275C).
In a Perkin-Elmer White Optiplate-384 (Cat#6007290), 2 ul culture supernatants were combined with 2 μl of a 10× AlphaLISA Anti-hAβ Acceptor beads+Biotinylated Antibody Anti-Aβ 1-40 Mix ([…]/5 nM). After 1 hour room temperature incubation, 16 μl of a 1.25× preparation of Streptavidin (SA) Donor beads (25 μg/mL) were added and incubated for 30 minutes in the Dark. Light Emission at 615 nm was then recorded using EnVision-Alpha Reader. Levels of Aβ 40 in the culture supernatants were calculated as percentage of maximum signal (cells treated with 1% DMSO without inhibitor). The IC50 values were calculated using the Excel XLfit software.

[2] = test system: Aβ40 in brain of wild-type mice; test: Lowering of Aβ40 in brain of wild-type mice; format: in vivo; conditions: Mus musculus, po; female C57Bl/6J mice, 30 mg/kg per os, 4 h; brain Aβ40 related to the value in the vehicle group; read-out: Aβ40 (wt mice, brain)
Protocol: Lowering of Aβ40 in Brain of Wild-Type Mice:
Animals and Housing Conditions.
Animals were maintained in a 12/12 h light/dark cycle, with lights starting at 6 a.m., and experiments were conducted during the light phase. Animal housing and experimental procedures were in line with ethical and legal guidelines and were authorized by local veterinary authorities.
Experiment. Female C57Bl/6J mice were treated with a dose of 30 mg/kg of the compounds, 3-4 animals per treatment group. The test compound was dissolved in 5% EtOH, 10% Solutol, and was applied per os at 10 mL/kg. After 4 h, the animals were sacrificed and brain and plasma were collected. The brain was cut into halves and immediately frozen on dry ice. Brain was used for measurement of Aβ40 and plasma was used for determination of compound exposure. […] Brain tissue was homogenized in 2% DEA buffer in a Roche MagnaLyser (20″, 4000 rpm) and subsequently centrifuged for 1 h at 100000 g. DEA was reduced to 0.2% in 50 mM NaCl and one-half of the DEA lysate was passed over an Oasis Solid phase extraction plate (Waters; cat. no. 186000679), which had been activated with MeOH and equilibrated in dH2O (1 mL each). After washes in 10% and 30% MeOH (1 mL each), the Aβ-peptides were eluted in 0.8 mL of 2% NH4OH in 90% MeOH. The eluate was dried over a N2 flow, and the dried sample was reconstituted in 30 μL of AlphaLISA assay buffer. Aβ40 was determined by an AlphaLISA assay (Perkin-Elmer). In a white 96-well, half area microplate (Perkin-Elmer cat. no. 6005561), 20 μL of the reconstituted sample were mixed with 5 μL of biotinylated BAP-24 (specific for C-terminus of Aβ40) (Brockhaus, M.; Grunberg, J.; Rohrig, S.; Loetscher, H.; Wittenburg, N.; Baumeister, R.; Jacobsen, H.; Haass, C. Caspasemediated cleavage is not required for the activity of presenilins in amyloidogenesis and NOTCH signaling. NeuroReport 1998, 9, 1481-1486.) stock=4.4 mg/mL, f.c.5.5 μg/mL), and 5 μL 252Q6 acceptor beads (252Q6 antibody, Invitrogen AMB0062) had been previously conjugated with AlphaLISA Acceptor beads (Perkin-Elmer cat. no. 6772002); final dilution 1:500). The mix was incubated for 1 h at RT in the dark. Then 20 μL of Streptavin-coated Donor Beads (Perkin-Elmer cat. no. 6760002, final dilution 1:125) were added and this final mix was incubated in the dark for another 30 min at RT before RFU was measured in an AlphaScreen Reader (Perkin-Elmer Envision 2104). The value obtained for Aβ40 in the treated animals was related to the value in the vehicle group and is given in %. Alternatively a commercial ELISA was used for Aβ40 determination (Wako ELISA: (“Human/Rat β Amyloid (40) ELISA kit Wako II”; cat nr. 294-64701) following the manufacture's instruction. Also here the Aβ-lowering efficacy was calculated as percentage of the vehicle group.

T1 sequence (P56817 46-501): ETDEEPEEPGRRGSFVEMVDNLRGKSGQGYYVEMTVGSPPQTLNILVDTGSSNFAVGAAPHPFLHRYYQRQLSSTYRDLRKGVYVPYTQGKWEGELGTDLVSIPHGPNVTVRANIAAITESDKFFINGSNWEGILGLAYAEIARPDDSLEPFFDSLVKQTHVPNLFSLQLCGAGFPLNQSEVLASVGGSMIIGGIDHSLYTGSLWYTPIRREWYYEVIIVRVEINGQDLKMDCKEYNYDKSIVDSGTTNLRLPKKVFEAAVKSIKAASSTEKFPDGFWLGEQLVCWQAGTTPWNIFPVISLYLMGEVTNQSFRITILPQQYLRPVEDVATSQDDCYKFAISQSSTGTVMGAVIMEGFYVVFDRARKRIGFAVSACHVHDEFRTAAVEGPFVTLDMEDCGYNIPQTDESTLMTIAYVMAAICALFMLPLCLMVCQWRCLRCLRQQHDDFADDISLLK

SMILES	IC50 [1] [nM]	response vs control in vivo at 30 mg/kg [2] [%]
Cc1cc(C#N)cnc1C(=O)Nc1ccc(F)c([C@@]2(C)N=C(N)C(C)(C)[S@@]3(=O)=NCCC[C@H]23)n1 [Example 1AA, N-(6-((4aR,5R,9R)-7-amino-5,8,8-trimethyl-9-oxido-2,3,4,4a,5,8-hexahydro-[1,4]thiazino[2,1-f][1,2]thiazin-5-yl)-5-fluoropyridin-2-yl)-5-cyano-3-methylpicolinamide]	0.6	38
Cc1cc(C#N)cnc1C(=O)Nc1ccc(F)c([C@@]2(C)N=C(N)C(C)(C)[S@@]3(=O)=NCCC[C@@H]23)n1 [Example 1AB, N-(6-((4aS,5R,9R)-7-amino-5,8,8-trimethyl-9-oxido-2,3,4,4a,5,8-hexahydro-[1,4]thiazino[2,1-f][1,2]thiazin-5-yl)-5-fluoropyridin-2-yl)-5-cyano-3-methylpicolinamide]	2.3	79
Cc1cc(C#N)cnc1C(=O)Nc1ccc(F)c([C@@]2(C)N=C(N)C(C)(C)[S@]3(=O)=NCCC[C@H]23)n1 [Example 1BA, N-(6-((4aR,5R,9S)-7-amino-5,8,8-trimethyl-9-oxido-2,3,4,4a,5,8-hexahydro-[1,4]thiazino[2,1-f][1,2]thiazin-5-yl)-5-fluoropyridin-2-yl)-5-cyano-3-methylpicolinamide]	0.5	95
Cc1cc(C#N)cnc1C(=O)Nc1ccc(F)c([C@@]2(C)N=C(N)C(C)(C)[S@]3(=O)=NCCC[C@@H]23)n1 [Example 1BB, N-(6-((4aS,5R,9S)-7-amino-5,8,8-trimethyl-9-oxido-2,3,4,4a,5,8-hexahydro-[1,4]thiazino[2,1-f][1,2]thiazin-5-yl)-5-fluoropyridin-2-yl)-5-cyano-3-methylpicolinamide]	3.9	93
COc1cnc(C(=O)Nc2ccc(F)c([C@@]3(C)N=C(N)C(C)(C)[S@@]4(=O)=NCCC[C@H]34)n2)cn1 [Example 2AA, N-(6-((4aR,5R,9R)-7-amino-5,8,8-trimethyl-9-oxido-2,3,4,4a,5,8-hexahydro-[1,4]thiazino[2,1-f][1,2]thiazin-5-yl)-5-fluoropyridin-2-yl)-5-methoxypyrazine-2-carboxamide]	19.7	83
COc1cnc(C(=O)Nc2ccc(F)c([C@@]3(C)N=C(N)C(C)(C)[S@@]4(=O)=NCCC[C@@H]34)n2)cn1 [Example 2AB, N-(6-((4aS,5R,9R)-7-amino-5,8,8-trimethyl-9-oxido-2,3,4,4a,5,8-hexahydro-[1,4]thiazino[2,1-f][1,2]thiazin-5-yl)-5-fluoropyridin-2-yl)-5-methoxypyrazine-2-carboxamide]	18.7	92
COc1cnc(C(=O)Nc2ccc(F)c([C@@]3(C)N=C(N)C(C)(C)[S@]4(=O)=NCCC[C@H]34)n2)cn1 [Example 2BA, N-(6-((4aR,5R,9S)-7-amino-5,8,8-trimethyl-9-oxido-2,3,4,4a,5,8-hexahydro-[1,4]thiazino[2,1-f][1,2]thiazin-5-yl)-5-fluoropyridin-2-yl)-5-methoxypyrazine-2-carboxamide]	21.7	87
CC1(C)C(N)=N[C@](C)(c2nc(NC(=O)c3ncc(Cl)cc3Cl)ccc2F)[C@H]2CCCN=[S@@]21=O [Example 3AA, N-(6-((4aR,5R,9R)-7-amino-5,8,8-trimethyl-9-oxido-2,3,4,4a,5,8-hexahydro-[1,4]thiazino[2,1-f][1,2]thiazin-5-yl)-5-fluoropyridin-2-yl)-3,5-dichloropicolinamide]	1.3	76
Cc1cc(F)cnc1C(=O)Nc1ccc(F)c([C@@]2(C)N=C(N)C(C)(C)[S@@]3(=O)=NCCC[C@H]23)n1 [Example 4AA, N-(6-((4aR,5R,9R)-7-amino-5,8,8-trimethyl-9-oxido-2,3,4,4a,5,8-hexahydro-[1,4]thiazino[2,1-f][1,2]thiazin-5-yl)-5-fluoropyridin-2-yl)-5-fluoro-3-methylpicolinamide]	18.1	80
Cc1c(C(=O)Nc2ccc(F)c([C@@]3(C)N=C(N)C(C)(C)[S@@]4(=O)=NCCC[C@H]34)n2)nc2ccc(Cl)cn12 [Example 6AA, N-(6-((4aR,5R,9R)-7-amino-5,8,8-trimethyl-9-oxido-2,3,4,4a,5,8-hexahydro-[1,4]thiazino[2,1-f][1,2]thiazin-5-yl)-5-fluoropyridin-2-yl)-6-chloro-3-methylimidazo[1,2-a]pyridine-2-carboxamide]	28.5	103
CC1(C)C(N)=N[C@](C)(c2nc(NC(=O)c3ccc(OC(F)F)cn3)ccc2F)[C@H]2CCCN=[S@@]21=O [Example 7AA, N-(6-((4aR,5R,9R)-7-amino-5,8,8-trimethyl-9-oxido-2,3,4,4a,5,8-hexahydro-[1,4]thiazino[2,1-f][1,2]thiazin-5-yl)-5-fluoropyridin-2-yl)-5-(difluoromethoxy)picolinamide]	2.7	65
CC1(C)C(N)=N[C@](C)(c2nc(NC(=O)c3ccc(OCC(F)(F)C(F)F)cn3)ccc2F)[C@H]2CCCN=[S@@]21=O [Example 8AA, N-(6-((4aR,5R,9R)-7-amino-5,8,8-trimethyl-9-oxido-2,3,4,4a,5,8-hexahydro-[1,4]thiazino[2,1-f][1,2]thiazin-5-yl)-5-fluoropyridin-2-yl)-5-(2,2,3,3-tetrafluoropropoxy)picolinamide]	35.4	61
Cc1cc(C#N)cnc1C(=O)Nc1ccc(F)c([C@@]2(C)N=C(N)C(C)(C)[S@@]3(=O)=NCC[C@@H]23)n1 [Example 9AB, N-(6-((3aS,4R,8R)-6-amino-4,7,7-trimethyl-8-oxido-3,3a,4,7-tetrahydro-2H-isothiazolo[1,5-a][1,4]thiazin-4-yl)-5-fluoropyridin-2-yl)-5-cyano-3-methylpicolinamide]	0.6	40
Cc1cc(C#N)cnc1C(=O)Nc1ccc(F)c([C@@]2(C)N=C(N)C(C)(C)[S@]3(=O)=NCC[C@H]23)n1 [Example 9BA, N-(6-((3aR,4R,8S)-6-amino-4,7,7-trimethyl-8-oxido-3,3a,4,7-tetrahydro-2H-isothiazolo[1,5-a][1,4]thiazin-4-yl)-5-fluoropyridin-2-yl)-5-cyano-3-methylpicolinamide]	14.9	86
Cc1cc(F)cnc1C(=O)Nc1ccc(F)c([C@@]2(C)N=C(N)C(C)(C)[S@@]3(=O)=NCC[C@@H]23)n1 [Example 10AB, N-(6-((3aS,4R,8R)-6-amino-4,7,7-trimethyl-8-oxido-3,3a,4,7-tetrahydro-2H-isothiazolo[1,5-a][1,4]thiazin-4-yl)-5-fluoropyridin-2-yl)-5-fluoro-3-methylpicolinamide]	10	71
